Values of other authors as cited in PMC9026148, “Pre-Clinical Study Evaluating Novel Protein Phosphatase 2A Activators as Therapeutics for Neuroblastoma” (Cancers, 2022).

System: CYP3A4
Design: method as in PMID 32954276
Settings: at 1 h, cited from earlier work

## O=S(=O)(N[C@@H]1CCC[C@H](N2c3ccccc3Oc3ccccc32)[C@H]1O)c1ccc(OC(F)(F)F)cc1 [NZ-8-061]
  time-dependent inhibition of CYP3A4 (fold shift): > 30 fold
time-dependent inhibition
  IC50: < 1000 nM
